According to ChEMBL document CHEMBL1201862, “PubChem BioAssay data set” (2004):
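Results reflect a 48-hour exposure of cells in 96-well plates to compound at five concentrations. At the GI50, growth is halved.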 Calls of active or inactive are those of the source. Rule as the data show it: active = GI50 up to about 1.1 µM and inactive = higher.

Key:
Assay in all cases: inhibition of tumour cell growth, NCI panel, 48 h
HL-60 = tested on: HL-60
M14 = tested on: M14
KM12 = tested on: KM12
EKVX = tested on: EKVX
OVCAR-5 = tested on: OVCAR-5
OVCAR-3 = tested on: OVCAR-3
SNB-19 = tested on: SNB-19
OVCAR-4 = tested on: OVCAR-4
786-0 = tested on: 786-0
NCI/ADR-RES = tested on: NCI/ADR-RES
SW-620 = tested on: SW-620
UACC-62 = tested on: UACC-62
ACHN = tested on: ACHN
HOP-92 = tested on: HOP-92
PC-3 = tested on: PC-3
NCI-H460 = tested on: NCI-H460
SK-MEL-2 = tested on: SK-MEL-2
COLO 205 = tested on: COLO 205
DU-145 = tested on: DU-145
RXF 393 = tested on: RXF 393

Row | SMILES | GI50 (HL-60) | GI50 (M14) | GI50 (KM12) | GI50 (EKVX) | GI50 (OVCAR-5) | GI50 (OVCAR-3) | GI50 (SNB-19) | GI50 (OVCAR-4) | GI50 (786-0) | GI50 (NCI/ADR-RES) | GI50 (SW-620) | GI50 (UACC-62) | GI50 (ACHN) | GI50 (HOP-92) | GI50 (PC-3) | GI50 (NCI-H460) | GI50 (SK-MEL-2) | GI50 (COLO 205) | GI50 (DU-145) | GI50 (RXF 393)
1 | COC(=O)c1cc2c3c(ccc2[nH]1)N(C(=O)c1cc2cc(OC)c(OC)c(OC)c2[nH]1)CC3CCl (stereo not given) | 1.48 µM (inactive) | > 27.5 µM (inactive) | 6.4 µM (inactive) | > 100 µM (inactive) | > 100 µM (inactive) | > 24.4 µM (inactive) | > 100 µM (inactive) | 8.34 µM (inactive) | 3.79 µM (inactive) | 12.2 µM (inactive) | 5.48 µM (inactive) | 4.54 µM (inactive) | 5.62 µM (inactive) | > 100 µM (inactive) | 4.31 µM (inactive) | 2.79 µM (inactive) | > 100 µM (inactive) | 2.66 µM (inactive) | 6.44 µM (inactive) | 5.51 µM (inactive)
2 | CC(=O)Nc1cccc(N2C(=O)/C(=C\c3cccc(Oc4ccccc4)c3)S(=O)(=O)C2c2ccccc2)c1 (stereo not given) | 18.9 µM (inactive) | 90.6 µM (inactive) | 68.5 µM (inactive) | 73.6 µM (inactive) | > 100 µM (inactive) | 45.4 µM (inactive) | > 100 µM (inactive) | 25.2 µM (inactive) | > 100 µM (inactive) | 55.5 µM (inactive) | 37.8 µM (inactive) | 43.6 µM (inactive) | > 100 µM (inactive) | 43.3 µM (inactive) | 64.3 µM (inactive) | > 100 µM (inactive) | 55.6 µM (inactive) | 59.7 µM (inactive) | > 100 µM (inactive) | > 100 µM (inactive)
3 | CCCCOC(=O)NC(c1ccccc1)C(O)C(=O)OC1C[C@@]2(O)C(OC(=O)c3ccccc3)C3[C@](C)(C(=O)[C@H](OC(C)=O)C(=C1C)C2(C)C)[C@@H](O)C[C@H]1OC[C@@]31OC(C)=O (stereo not given in full) | 0.00345 µM (active) | 0.0102 µM (active) | 0.0031 µM (active) | 0.0741 µM (active) | 0.015 µM (active) | 0.00906 µM (active) | 0.0361 µM (active) | 2.92 µM (inactive) | 0.00875 µM (active) | 2 µM (inactive) | 0.00627 µM (active) | 0.0134 µM (active) | 0.0678 µM (active) | 5.7 µM (inactive) | 0.0171 µM (active) | 0.002 µM (active) | 0.00773 µM (active) | 0.00652 µM (active) | 0.0125 µM (active) | 0.0156 µM (active)
4 | O=C(c1ccc(Cl)cc1)C(O)c1ccc(Cl)cc1 (stereo not given) | 32.5 µM (inactive) | > 100 µM (inactive) | 41.6 µM (inactive) | 34.2 µM (inactive) | > 100 µM (inactive) | 43.8 µM (inactive) | > 100 µM (inactive) | 86.3 µM (inactive) | > 100 µM (inactive) | > 100 µM (inactive) | > 100 µM (inactive) | 42 µM (inactive) | > 100 µM (inactive) | 30.8 µM (inactive) | 46.6 µM (inactive) | > 100 µM (inactive) | > 100 µM (inactive) | > 100 µM (inactive) | 92 µM (inactive) | > 100 µM (inactive)
5 | O=C(C=P(c1ccccc1)(c1ccccc1)c1ccccc1)c1ccc(-c2cccc([N+](=O)[O-])c2)cc1 | 2.57 µM (inactive) | 2.05 µM (inactive) | 3.85 µM (inactive) | 2.69 µM (inactive) | 3.61 µM (inactive) | 2.98 µM (inactive) | 5.07 µM (inactive) | 2.61 µM (inactive) | 4.51 µM (inactive) | 3.6 µM (inactive) | 3.91 µM (inactive) | 4.2 µM (inactive) | 2.82 µM (inactive) | 2.16 µM (inactive) | 3.57 µM (inactive) | 1.91 µM (inactive) | 1.63 µM (inactive) | 1.75 µM (inactive) | 6.07 µM (inactive) | 3.06 µM (inactive)
6 | O=c1ccn2n1Cc1ccccc1C2 | > 100 µM (inactive) | > 100 µM (inactive) | > 100 µM (inactive) | > 100 µM (inactive) | > 100 µM (inactive) | > 100 µM (inactive) | > 100 µM (inactive) | > 100 µM (inactive) | > 100 µM (inactive) | > 100 µM (inactive) | > 100 µM (inactive) | > 100 µM (inactive) | > 100 µM (inactive) | > 100 µM (inactive) | > 100 µM (inactive) | > 100 µM (inactive) | > 100 µM (inactive) | > 100 µM (inactive) | > 100 µM (inactive) | > 100 µM (inactive)
